Laboratory results published in patent US20100160408A1, “VILDAGLIPTIN FOR TREATING GENERAL PERIPHERAL NEUROPATHIES” (priority 2004, published 2010).

How the values were obtained:
aged rats [1] = test: Passive avoidance learning test in aged rats; assay type: in vivo; details: repeated oral administration, vildagliptin 3 mg/kg and/or donepezil 0.3 mg/kg, test started on day 14 of treatment, versus control group
Source text: (§1) The ameliorative effect of vildagliptin or the combined use of vildagliptin with the compounds having cholinesterase inhibitory activity on learning deficits is investigated in aged rats.
(§2) Methods Male (3 to 27 months old) rats of transgenic strain are used. The aged rats are divided into the following four groups (the active ingredient dosage can be adapted by the person skilled in the art).
(§3) 1) Control group: Repeated administration of placebo pill.
(§4) 2) Vildagliptin group: Repeated oral administration of vildagliptin 3 mg/kg.
(§5) Passive avoidance learning test is started on day 14 of treatment, and Morris water maze learning test on day 20 of treatment.
(§6) On each day of experiment, vildagliptin arid/or a cholinesterase inhibitor are administered 30 minutes and 1 hour, respectively, before initiation of the trial.
Passive Avoidance Learning: The passive avoidance learning test is performed using a chamber consisting of light and dark compartments. […] After a mouse moves to the dark compartment, the mouse is kept there for about 10 seconds with the door closed. One to two hours after the habituation trial, acquisition trial is performed. […]
In each trial, the latency from opening of the slide door until the animal moved to the dark compartment (step-through latency) is measured.

aged rats [2] = test: Morris water maze learning test in aged rats; assay type: in vivo; details: repeated oral administration, vildagliptin 3 mg/kg and/or donepezil 0.3 mg/kg, test started on day 20 of treatment, versus control group
Source text: as §1, §2, §3, §4, §5, §6
Morris Water Maze Learning Same animals used in the passive avoidance test are subjected for the water maze task. However, some rats can not swim well in the water tank, thus they are excluded in the water maze task.
In pretraining which is performed for swimming training and motivation for escaping from water, four trials are performed using a water bath, 80 cm in diameter, in a condition that the platform is visible. […]

What does the source list for `N#C[C@@H]1CCCN1C(=O)CNC12CC3CC(CC(O)(C3)C1)C2` [vildagliptin, (S)-1-[(3-hydroxy-1-adamantyl)amino]acetyl-2-cyano-pyrrolidine]?
learning deficit in passive avoidance learning (step-through latency / avoidance time) (aged rats [1]): significant improvement of the learning deficit; water maze learning deficit (latency to find platform submerged in the water) (aged rats [2]): significant improvement in water maze learning deficit
